{"source": "paper PMC5538713", "about": "“RORγt and RORα signature genes in human Th17 cells” (PLoS ONE, 2017)", "key": {"RORγt transcripts": {"tested_on": "RORγt transcripts", "assay": "RT-PCR of RORγt transcripts in human CD4 T cells during Th17 differentiation", "format": "cell-based", "conditions": "0.1 and 0.5 μM, throughout the time course (2 hours to 6 days)", "method": "Human CD4 T cells from 2 healthy donors were used in studies. 5.0 × 10^6 human CD4 T cells were used per sample and cell samples were collected at 0, 24 and 48 hours of Th17 differentiation for gene expression studies with RNA-Seq and RT-PCR.\nExpression of RORα, RORγt and IL-17A genes in siRNA or compound treated human Th17 cells was measured by quantitative RT-PCR using the TaqMan RNA-to-Ct 1 step kit (Applied Biosystems) following the manufacturer’s instructions. […] Real time PCR was performed using 600ng total RNA as template in the ABI PRISM 7500 Sequence Detection System (Applied Biosystems), with reaction starting at 48°C for 15 minutes, then 10 minutes at 95°C, followed by 40 cycles of 15 seconds at 95°C and 1 minute at 60°C.\nPCR results were analyzed with the ddCT algorithm [34] to generate data on relative quantitation and changes in gene expression."}, "IL-17A transcripts": {"tested_on": "IL-17A transcripts", "assay": "RT-PCR of IL-17A transcripts in human CD4 T cells during Th17 differentiation", "format": "cell-based", "conditions": "0.5 μM compound", "protocol": "Human CD4 T cells from 2 healthy donors were used in studies. […]\nFor compound treatment, CD4 T cells were pre-treated with compounds or DMSO vehicle control at 37°C for 1 hour before T cell activation.\nFor siRNA treatment, three RORγt siRNAs, two RORα siRNAs, two control siRNAs were tested at 1 μM, and mock transfected samples were included as controls (S1 Table). siRNA treatment was performed by Amaxa electroporation of human CD4 T cells with siRNAs. Human CD4 T cells were taken up in 100 μL Nucleofector solution (P3 primary cell 4D Nucleofector Kit, reference V4XP-3024, Amaxa Biosciences) at 5.0 × 10^6 cells/100 μL. Cell suspensions were transfected with siRNA by electroporation using the FI-115 program in the Amaxa 4D-Nucleofector. T cells after electroporation were rinsed with 500 μL culture medium, transferred to 24-well culture plates and kept at 37°C cell incubator before use in T cell assays. It was noticed that Amaxa electroporation caused an increased expression of some genes in human T cells and this elevated gene expression lasted up to 8 hours after electroporation. To avoid gene expression study interfered by electroporation, human CD4 T cells were rested in culture medium at 37°C for 8 hours after siRNA electroporation before the use of these cells to initiate Th17 differentiation for transcriptome profile.\nT cells after compound or siRNA treatments were stimulated with anti-CD3/anti-CD28 coated beads (Miltenyi Biotech) at 2:1 bead to cell ratio in culture medium containing 10 ng/ml IL1β (R&D), 10 ng/ml IL23 (R&D), 30 ng/ml TGFβ1 (R&D), 10 μg/ml of anti-IL4 and anti-IFNγ (eBioscience). T cell cultures were collected at different time points for RNA extraction and gene expression studies.\nExpression of RORα, RORγt and IL-17A genes in siRNA or compound treated human Th17 cells was measured by quantitative RT-PCR using the TaqMan RNA-to-Ct 1 step kit (Applied Biosystems) following the manufacturer’s instructions. […]\nPCR results were analyzed with the ddCT algorithm to generate data on relative quantitation and changes in gene expression."}, "CCKA (h)": {"molecular_target": "T1, CCKA (h) (Homo sapiens, UniProt P32238)", "T1 construct": "purchased Cerep", "T1 sequence (P32238 whole entry)": "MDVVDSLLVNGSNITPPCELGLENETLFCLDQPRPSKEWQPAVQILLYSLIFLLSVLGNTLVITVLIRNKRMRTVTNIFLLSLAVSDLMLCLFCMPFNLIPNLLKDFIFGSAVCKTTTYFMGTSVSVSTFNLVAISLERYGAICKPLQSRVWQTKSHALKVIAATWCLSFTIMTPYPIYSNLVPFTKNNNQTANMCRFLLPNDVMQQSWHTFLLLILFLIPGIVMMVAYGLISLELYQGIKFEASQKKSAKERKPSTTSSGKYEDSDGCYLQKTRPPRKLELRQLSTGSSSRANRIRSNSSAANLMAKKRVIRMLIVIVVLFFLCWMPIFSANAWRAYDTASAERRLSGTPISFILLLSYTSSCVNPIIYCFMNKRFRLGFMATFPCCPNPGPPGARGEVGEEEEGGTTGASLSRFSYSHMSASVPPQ", "assay": "Cerep selectivity panel", "format": "binding", "procedure,_shortened": "(§1)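 Panel profiling: compound added at 1 µM or 10 µM, activity assessed against 50 receptors, ion channels and transporters.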"}, "H2 (h)": {"molecular_target": "T2, H2 (h) (Homo sapiens, UniProt P25021)", "T2 construct": "purchased Cerep", "T2 sequence (P25021 whole entry)": "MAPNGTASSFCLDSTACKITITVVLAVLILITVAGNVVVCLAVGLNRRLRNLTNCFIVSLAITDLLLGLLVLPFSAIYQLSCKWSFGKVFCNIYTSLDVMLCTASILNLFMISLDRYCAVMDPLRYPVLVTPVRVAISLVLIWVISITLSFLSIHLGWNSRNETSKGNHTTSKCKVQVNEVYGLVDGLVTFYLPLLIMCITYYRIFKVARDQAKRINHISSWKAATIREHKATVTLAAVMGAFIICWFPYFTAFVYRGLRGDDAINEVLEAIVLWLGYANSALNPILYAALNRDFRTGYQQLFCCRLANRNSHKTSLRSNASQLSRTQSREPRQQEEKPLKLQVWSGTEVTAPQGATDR", "assay": "Cerep selectivity panel", "format": "binding", "procedure,_shortened": "as §1"}, "Aa1": {"tested_on": "Aa1", "assay": "Cerep selectivity panel", "format": "binding"}, "Aa2": {"tested_on": "Aa2", "assay": "Cerep selectivity panel", "format": "binding"}, "5HT1A (h)": {"molecular_target": "T3, 5HT1A (h) (Homo sapiens, UniProt P08908)", "T3 construct": "purchased Cerep", "T3 sequence (P08908 whole entry)": "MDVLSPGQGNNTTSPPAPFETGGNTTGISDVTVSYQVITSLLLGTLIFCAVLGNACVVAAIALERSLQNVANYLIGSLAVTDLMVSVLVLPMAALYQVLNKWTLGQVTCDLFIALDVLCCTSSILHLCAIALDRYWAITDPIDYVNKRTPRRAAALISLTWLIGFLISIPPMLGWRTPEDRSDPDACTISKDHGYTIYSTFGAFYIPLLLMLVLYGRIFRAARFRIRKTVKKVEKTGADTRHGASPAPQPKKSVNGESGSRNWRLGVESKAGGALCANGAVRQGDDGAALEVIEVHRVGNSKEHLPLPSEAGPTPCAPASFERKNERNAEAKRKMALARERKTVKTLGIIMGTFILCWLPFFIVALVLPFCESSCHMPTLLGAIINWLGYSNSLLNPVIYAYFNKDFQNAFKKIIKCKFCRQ", "assay": "Cerep selectivity panel", "format": "binding", "procedure,_shortened": "as §1"}, "5HT1B": {"molecular_target": "T4, 5HT1B (Rattus norvegicus, UniProt P28564)", "T4 construct": "purchased Cerep", "T4 sequence (P28564 whole entry)": "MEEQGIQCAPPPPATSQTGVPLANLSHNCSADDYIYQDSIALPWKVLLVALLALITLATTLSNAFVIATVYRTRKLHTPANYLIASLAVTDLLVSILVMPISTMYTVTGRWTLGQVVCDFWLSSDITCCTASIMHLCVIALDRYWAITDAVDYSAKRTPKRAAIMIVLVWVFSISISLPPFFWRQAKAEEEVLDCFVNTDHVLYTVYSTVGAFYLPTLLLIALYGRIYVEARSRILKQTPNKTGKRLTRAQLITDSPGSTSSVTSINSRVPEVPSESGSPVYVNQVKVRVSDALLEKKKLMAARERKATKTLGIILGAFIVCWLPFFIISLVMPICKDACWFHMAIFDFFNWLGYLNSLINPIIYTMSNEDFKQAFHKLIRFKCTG", "assay": "Cerep selectivity panel", "format": "binding", "procedure,_shortened": "as §1"}, "VIP 1 (h)": {"molecular_target": "T5, VIP 1 (h) (Homo sapiens, UniProt P32241)", "T5 construct": "purchased Cerep", "T5 sequence (P32241 31-457)": "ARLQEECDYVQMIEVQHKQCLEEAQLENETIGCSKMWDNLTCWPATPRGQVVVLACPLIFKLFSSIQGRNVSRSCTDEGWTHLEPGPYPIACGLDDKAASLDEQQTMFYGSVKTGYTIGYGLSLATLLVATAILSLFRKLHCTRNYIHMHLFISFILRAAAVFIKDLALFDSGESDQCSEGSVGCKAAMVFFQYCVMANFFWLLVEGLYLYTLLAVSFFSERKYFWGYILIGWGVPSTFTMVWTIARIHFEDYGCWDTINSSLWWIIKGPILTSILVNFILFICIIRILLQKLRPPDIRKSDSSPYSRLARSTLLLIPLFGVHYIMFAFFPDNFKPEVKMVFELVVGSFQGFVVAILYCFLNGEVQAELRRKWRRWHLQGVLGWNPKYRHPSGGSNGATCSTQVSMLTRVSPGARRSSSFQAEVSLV", "assay": "Cerep selectivity panel", "format": "binding", "procedure,_shortened": "as §1"}, "GAL2 (h)": {"molecular_target": "T6, GAL2 (h) (Homo sapiens, UniProt O43603)", "T6 construct": "purchased Cerep", "T6 sequence (O43603 whole entry)": "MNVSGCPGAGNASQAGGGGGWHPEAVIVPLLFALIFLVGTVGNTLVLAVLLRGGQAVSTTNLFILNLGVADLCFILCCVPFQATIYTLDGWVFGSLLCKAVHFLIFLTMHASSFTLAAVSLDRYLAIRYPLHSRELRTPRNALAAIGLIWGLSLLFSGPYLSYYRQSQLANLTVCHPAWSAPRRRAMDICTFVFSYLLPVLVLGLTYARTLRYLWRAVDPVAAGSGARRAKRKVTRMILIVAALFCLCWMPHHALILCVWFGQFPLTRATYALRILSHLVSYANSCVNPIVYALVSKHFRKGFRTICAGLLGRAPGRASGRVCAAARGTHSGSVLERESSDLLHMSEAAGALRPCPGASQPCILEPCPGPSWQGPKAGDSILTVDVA", "assay": "Cerep selectivity panel", "format": "binding", "procedure,_shortened": "as §1"}, "human RORγt LBD": {"molecular_target": "T7, human RORγt LBD (Homo sapiens, UniProt P51449)", "T7 construct": "expressed in transfected cells; host or cells: HEK293T", "T7 sequence (P51449 269-508 limits assumed)": "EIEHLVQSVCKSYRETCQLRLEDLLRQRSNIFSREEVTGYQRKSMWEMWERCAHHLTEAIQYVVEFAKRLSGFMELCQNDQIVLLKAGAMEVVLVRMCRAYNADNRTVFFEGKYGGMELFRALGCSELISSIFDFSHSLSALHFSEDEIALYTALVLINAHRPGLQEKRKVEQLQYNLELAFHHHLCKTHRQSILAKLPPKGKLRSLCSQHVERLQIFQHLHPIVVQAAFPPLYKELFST", "assay": "RORγt cellular reporter assay (GAL4-RORγt LBD luciferase, HEK293T)", "format": "cell-based", "conditions": "24 hours, read-out: RORγ/γt Cellular Reporter Assay (IC50)", "protocol": "Media was removed and cells were lysed with 50 μL 1x Glo Lysis Buffer (Promega). […] To calculate the effect of compounds on RORγt activity, the ratio of firefly to renilla luciferase was determined and plotted against compound concentration. Agonist compounds increase RORγt-driven luciferase expression, and antagonist or inverse agonist compounds decrease luciferase expression. IC50 values were determined using Graphpad Prism."}}}
{"smiles": "CN(C)c1nc2ccc(C(O)(c3ccncc3)c3cncn3C)cc2c(Cl)c1-c1ccccc1", "note": "(stereo not drawn) [compound D]", "values": [{"measurement": "effect on RORγt expression in T cells", "setting": "RORγt transcripts", "value": "did not affect"}, {"measurement": "reduction of IL-17A transcripts", "setting": "IL-17A transcripts; 24 hours", "value": 79, "unit": "%"}, {"measurement": "reduction of IL-17A transcripts", "setting": "IL-17A transcripts; 72 hours", "value": 73, "unit": "%"}, {"measurement": "decrease of IL-17A transcripts", "setting": "IL-17A transcripts; day 6", "value": 67, "unit": "%"}, {"measurement": "inhibition at 1 µM", "setting": "CCKA (h)", "value": 11, "unit": "%"}, {"measurement": "inhibition at 10 µM", "setting": "H2 (h)", "value": 5, "unit": "%"}]}
{"smiles": "COc1nc2ccc([C@@](O)(c3ccc(C)nc3C)c3cnnn3C)cc2c(Cl)c1Cc1ccc(C(F)(F)F)cc1", "note": "[compound A]", "values": [{"measurement": "% Inhibition at 1µM", "setting": "Aa1; 1 µM", "value": 8, "unit": "%"}, {"measurement": "% Inhibition at 10µM", "setting": "Aa1; 10 µM", "value": 5, "unit": "%"}, {"measurement": "% Inhibition at 10µM", "setting": "Aa2", "value": 7, "unit": "%"}, {"measurement": "inhibition at 1 µM", "setting": "5HT1A (h); 1 µM", "value": 14, "unit": "%"}, {"measurement": "inhibition at 10 µM", "setting": "5HT1A (h); 10 µM", "value": 19, "unit": "%"}, {"measurement": "inhibition at 10 µM", "setting": "5HT1B", "value": 1, "unit": "%"}, {"measurement": "inhibition at 1 µM", "setting": "VIP 1 (h)", "value": 3, "unit": "%"}]}
{"smiles": "COc1nc2ccc([C@](O)(c3ccc(Cl)cc3)c3cncn3C)cc2c(Cl)c1Cc1ccc(-n2cccn2)cc1", "note": "[B]", "values": [{"measurement": "inhibition at 10 µM", "setting": "GAL2 (h)", "value": 1, "unit": "%"}]}
{"smiles": "COc1nc2ccc([C@@](O)(c3ccccc3)C3CCN(C(C)=O)CC3)cc2c(Cl)c1Cc1ccc(-n2cccn2)cc1", "note": "[C]", "values": [{"measurement": "IC50", "setting": "human RORγt LBD", "value": 28.9, "unit": "nM"}]}
